{"source": "paper PMC3441526", "about": "“KCN1, a Novel Synthetic Sulfonamide Anticancer Agent: In Vitro and In Vivo Anti-Pancreatic Cancer Activities and Preclinical Pharmacology” (PLoS ONE, 2012)", "key": {"[1]": {"assay": "S9 metabolism", "assay_type": "in vitro ADME, CD2F1 mice", "experimental": "The in vitro metabolism of KCN1 was determined using hepatic microsomal S9 fractions from CD2F1 mice (In Vitro Technologies, Boston, MA). The reaction mixture consisted of 20 µL of 1000 µM KCN1 (in DMSO) and 1280 µL of cold 100 mM Tris buffer (pH 7.4). The reactions were initiated by adding 200 µL of the appropriate S9 fraction, and were maintained at 37°C. […] Metabolic reactions were initiated by adding phase I (NADPH-regenerating systems) or phase II (UDPGA and PAPS) reagents to the reaction mixtures, respectively. At designated time points (0, 15, 30, 45, and 60 min), duplicate 100 µL portions of the incubation mixture were removed and subjected to HPLC analysis by the same procedure described for plasma samples above. The stability of the drug was determined by analysis of intact KCN1, in comparison with negative control (without S9 fractions)."}, "[2]": {"assay": "Pharmacokinetic study, faecal recovery and late detection (strain not stated)", "assay_type": "in vivo, mice", "details": "for initial dose of parental compound recovered in feces: mice", "experimental": "(§1) Female CD-1 and nude mice were administered 35 mg/kg body weight of KCN1 as either a single intravenous injection via a tail vein or via an intraperitoneal injection. At selected time points after dosing, groups of three mice/time point were subjected to a retro-orbital bleed. The blood was collected into heparinized tubes, and plasma was separated by centrifugation. Tissues (brain, skeletal muscle, kidneys, liver, spleen, and heart) were collected by necropsy. Urine and feces were collected on ice for 24 h from mice housed in metabolic cages (n = 3/study). The collection containers and cages were washed twice with 0.9% saline solution, and each urine collection and each wash was analyzed separately, then values were added together for each mouse to determine the total KCN1 present in urine during the collection period. Pharmacokinetic values were derived using Phoenix WinNonlin Version 6.0 (Mountain View, CA)."}, "[3]": {"tested_on": "BxPC3 cells", "assay": "Annexin V apoptosis assay", "assay_type": "cell-based, human", "details": "BxPC3, 50 µM, 48 h", "experimental": "(§2) Cells in early and late stages of apoptosis were detected using an Annexin V-FITC apoptosis detection kit from BioVision (Mountain View, CA), according the manufacturer’s protocol, [47]. In brief, 2–3×10^5 cells were exposed to various doses of the test compound KCN1 (0, 5, 12.5, 50 µM) and incubated for 48 h prior to analysis. The samples were analyzed using a Becton Dickinson FACSCalibur instrument (Ex = 488 nm; Em = 530 nm). Cells that were positive for Annexin V-FITC alone (early apoptosis) and Annexin V-FITC and PI (late apoptosis) were counted."}, "[4]": {"tested_on": "Mia Paca-2 cells", "assay": "Annexin V apoptosis assay", "assay_type": "cell-based, human", "details": "Mia Paca-2, 50 µM, 48 h", "experimental": "as §2"}, "[5]": {"tested_on": "Panc-1 cells", "assay": "Annexin V apoptosis assay", "assay_type": "cell-based, human", "details": "Panc-1, 50 µM, 48 h", "experimental": "as §2"}, "[6]": {"tested_on": "HPAC cells", "assay": "Annexin V apoptosis assay", "assay_type": "cell-based, human", "details": "50 µM, 48 h, against untreated control", "experimental": "as §2"}, "[7]": {"assay": "Pharmacokinetic study in mice", "assay_type": "in vivo, CD-1 mice", "details": "for dose recovered as parental KCN1 from urine: first 24 hr", "experimental": "as §1\nAn HPLC protocol was developed to detect KCN1 in different matrices (plasma, urine or tissue homogenates) using an Agilent 1120 instrument. KCN1 was separated on a Zorbax SB-C18 (5 µm, 150 × 4.6 mm) analytical column with a Zorbax Reliance Cartridge Guard Column (SB-C18), and the eluate was monitored by UV at 254 nm. The mobile phase was composed of “A” (methanol +0.1% Et3N)-“B” (ddH2O+0.1% Et3N) (80∶20, v/v). Prior to application, the mobile phase was filtered and degassed using a Millipore glass filter system with a nylon membrane (0.2 µm). The peaks for KCN1 were used to establish standard curves and for quantitative analysis of samples. Quantification of the compound was achieved by determination of the peak area at the retention time of approximately 4.4 minutes.\nPlasma (100 µL) was mixed with 200 µL of methanol, vortexed, and centrifuged to remove precipitated proteins. The supernatant was evaporated to dryness under a stream of air. The residue was dissolved in 100 µL of the mobile phase, and 10 µL was injected onto the HPLC system for analysis. Weighed tissues were homogenized in two to five volumes of PBS (based on the weight of the tissue samples), and portions of the homogenates were processed in the same manner as the plasma samples."}, "[8]": {"tested_on": "immortalized fibroblasts", "parameters": "method as in PMID 22923450", "details": "immortalized fibroblasts ref 31; cited from earlier work"}, "[9]": {"assay": "Plasma stability determination", "assay_type": "in vitro ADME, mouse", "experimental": "The validated HPLC method was used to evaluate the stability of KCN1 in mouse plasma at 37°C, 4°C and −80°C. KCN1 was dissolved in methanol and diluted with plasma to achieve the two concentrations used in the study: 1 and 10 µM. At the designated time points, samples were removed and extracted using the aforementioned procedure. KCN1 concentrations were quantified and, to illustrate the in vitro stability of the compound, expressed as percentages of the initial concentration."}, "[10]": {"details": "CD-1 mice, 35 mg/kg, either route"}}, "note": "Where two headings read alike, the source gives them in different places."}
{"smiles": "COc1ccc(S(=O)(=O)N(Cc2ccc3c(c2)C=CC(C)(C)O3)c2ccccc2)cc1OC", "note": "[KCN1, 3,4-dimethoxy-N-[(2,2-dimethyl-2H-chromen-6-yl)methyl]-N-phenylbenzenesulfonamide]", "values": [{"measurement": "decrease in amount of KCN1", "setting": "[1]; mouse S9, phase I (oxidation) enzymes, NADPH-regenerating system", "result": "more than 60%"}, {"measurement": "half-life with phase II enzymes", "setting": "[1]; mouse S9, phase II (conjugation) enzymes, UDPGA and PAPS", "result": "relatively long half-life"}, {"measurement": "time still detectable at a low level", "setting": "[2]; after intraperitoneal dosing (data not shown)", "result": "at least five days"}, {"measurement": "initial dose of parental compound recovered in feces", "setting": "[2]; I.P. injection (data not shown)", "result": "Approximately 1%"}, {"measurement": "initial dose of parental compound recovered in feces", "setting": "[2]; I.V. injection (data not shown)", "result": "less than 1%"}, {"measurement": "apoptotic activity", "setting": "[3]", "result": "no detectable apoptotic activity"}, {"measurement": "apoptotic activity", "setting": "[4]", "result": "no detectable apoptotic activity"}, {"measurement": "apoptotic activity", "setting": "[5]", "result": "no detectable apoptotic activity"}, {"measurement": "apoptotic index", "setting": "[6]", "result": 1.4, "unit": "fold"}, {"measurement": "dose recovered as parental KCN1 from urine", "setting": "[7]; CD-1 mice, 35 mg/kg I.P.", "result": "less than 0.5%"}, {"measurement": "dose recovered as parental KCN1 from urine", "setting": "[7]; CD-1 mice, 35 mg/kg intravenously", "result": "less than 1%"}, {"measurement": "detection in brain", "setting": "[7]; [10]", "result": "could not be detected after 6 h"}, {"measurement": "time detectable in heart, lungs, liver, spleen, kidneys and skeletal muscle", "setting": "[7]; [10]", "result": "at least 24 h"}, {"measurement": "time plasma concentration still detectable", "setting": "[7]; CD-1 mice, I.P. 35 mg/kg", "result": "≥ 24", "unit": "h"}, {"measurement": "time plasma concentration still detectable", "setting": "[7]; CD-1 mice, I.V. 35 mg/kg", "result": "at least 6 h"}, {"measurement": "Tmax", "setting": "[7]; female, mouse, plasma, ip, CD-1 mice, I.P. 35 mg/kg, read-out: time of maximum plasma level (converted)", "result": 0.5, "unit": "h"}, {"measurement": "concentration at 6 h", "setting": "[7]; female, mouse, plasma, iv, CD-1 mice, I.V. 35 mg/kg, 6 h after dosing", "result": "< 300", "unit": "ng/mL"}, {"measurement": "concentration at 5 min", "setting": "[7]; female, mouse, plasma, iv, CD-1 mice, bolus I.V. 35 mg/kg, 5 minutes", "result": 9980, "unit": "ng/mL"}, {"measurement": "half-life", "setting": "[7]; female, mouse, Brain, CD-1, IP 35 mg/kg", "result": 3.13, "unit": "h"}, {"measurement": "Tmax", "setting": "[7]; female, mouse, Brain, CD-1, IP 35 mg/kg, read-out: Tmax", "result": 1, "unit": "h"}, {"measurement": "half-life", "setting": "[7]; female, mouse, Brain, CD-1, IV 35 mg/kg", "result": 0.53, "unit": "h"}, {"measurement": "Tmax", "setting": "[7]; female, mouse, Brain, CD-1, IV 35 mg/kg, read-out: Tmax", "result": 0.08, "unit": "h"}, {"measurement": "half-life", "setting": "[7]; female, mouse, Heart, CD-1, IP 35 mg/kg", "result": 2.19, "unit": "h"}, {"measurement": "Tmax", "setting": "[7]; female, mouse, Heart, CD-1, IP 35 mg/kg, read-out: Tmax", "result": 0.17, "unit": "h"}, {"measurement": "half-life", "setting": "[7]; female, mouse, Heart, CD-1, IV 35 mg/kg", "result": 22.1, "unit": "h"}, {"measurement": "Tmax", "setting": "[7]; female, mouse, Heart, CD-1, IV 35 mg/kg, read-out: Tmax", "result": 0.08, "unit": "h"}, {"measurement": "half-life", "setting": "[7]; female, mouse, Kidneys, CD-1, IP 35 mg/kg", "result": 2.5, "unit": "h"}, {"measurement": "Tmax", "setting": "[7]; female, mouse, Kidneys, CD-1, IP 35 mg/kg, read-out: Tmax", "result": 0.08, "unit": "h"}, {"measurement": "half-life", "setting": "[7]; female, mouse, Kidneys, CD-1, IV 35 mg/kg", "result": 18.8, "unit": "h"}, {"measurement": "Tmax", "setting": "[7]; female, mouse, Kidneys, CD-1, IV 35 mg/kg, read-out: Tmax", "result": 0.08, "unit": "h"}, {"measurement": "half-life", "setting": "[7]; female, mouse, Liver, CD-1, IP 35 mg/kg", "result": 3.5, "unit": "h"}, {"measurement": "Tmax", "setting": "[7]; female, mouse, Liver, CD-1, IP 35 mg/kg, read-out: Tmax", "result": 4, "unit": "h"}, {"measurement": "half-life", "setting": "[7]; female, mouse, Liver, CD-1, IV 35 mg/kg", "result": 1.15, "unit": "h"}, {"measurement": "Tmax", "setting": "[7]; female, mouse, Liver, CD-1, IV 35 mg/kg, read-out: Tmax", "result": 0.08, "unit": "h"}, {"measurement": "half-life", "setting": "[7]; female, mouse, Lungs, CD-1, IP 35 mg/kg", "result": 2.27, "unit": "h"}, {"measurement": "Tmax", "setting": "[7]; female, mouse, Lungs, CD-1, IP 35 mg/kg, read-out: Tmax", "result": 0.25, "unit": "h"}, {"measurement": "half-life", "setting": "[7]; female, mouse, Lungs, CD-1, IV 35 mg/kg", "result": 23.3, "unit": "h"}, {"measurement": "Tmax", "setting": "[7]; female, mouse, Lungs, CD-1, IV 35 mg/kg, read-out: Tmax", "result": 2, "unit": "h"}, {"measurement": "half-life", "setting": "[7]; female, mouse, Muscle, CD-1, IP 35 mg/kg", "result": 1.86, "unit": "h"}, {"measurement": "Tmax", "setting": "[7]; female, mouse, Muscle, CD-1, IP 35 mg/kg, read-out: Tmax", "result": 0.17, "unit": "h"}, {"measurement": "half-life", "setting": "[7]; female, mouse, Muscle, CD-1, IV 35 mg/kg", "result": 1.52, "unit": "h"}, {"measurement": "Tmax", "setting": "[7]; female, mouse, Muscle, CD-1, IV 35 mg/kg, read-out: Tmax", "result": 0.08, "unit": "h"}, {"measurement": "half-life", "setting": "[7]; female, mouse, Plasma, CD-1, IP 35 mg/kg", "result": 7.35, "unit": "h"}, {"measurement": "half-life", "setting": "[7]; female, mouse, Plasma, CD-1, IV 35 mg/kg", "result": 0.16, "unit": "h"}, {"measurement": "half-life", "setting": "[7]; female, mouse, Spleen, CD-1, IP 35 mg/kg", "result": 2.35, "unit": "h"}, {"measurement": "Tmax", "setting": "[7]; female, mouse, Spleen, CD-1, IP 35 mg/kg, read-out: Tmax", "result": 2, "unit": "h"}, {"measurement": "half-life", "setting": "[7]; female, mouse, Spleen, CD-1, IV 35 mg/kg", "result": 0.46, "unit": "h"}, {"measurement": "Tmax", "setting": "[7]; female, mouse, Spleen, CD-1, IV 35 mg/kg, read-out: Tmax", "result": 0.08, "unit": "h"}, {"measurement": "cytostatic effect", "setting": "[8]", "result": "little cytostatic effect"}, {"measurement": "compound remaining in mouse plasma", "setting": "[9]; 4°C, at least 24 hr", "result": "more than 90%"}, {"measurement": "compound remaining in mouse plasma", "setting": "[9]; 37°C, 8 hr, 1 µM", "result": "more than 80%"}, {"measurement": "compound remaining in mouse plasma", "setting": "[9]; 37°C, 8 hr, 10 µM", "result": "more than 80%"}, {"measurement": "compound remaining in mouse plasma", "setting": "[9]; −80°C, up to 4 wks", "result": "more than 92%"}]}
